Experimental data as given in publication PMC12090182, “Repurposing of the RIPK1-Selective Benzo[1,4]oxazepin-4-one Scaffold for the Development of a Type III LIMK1/2 Inhibitor” (ACS Chemical Biology, 2025).

Legend:
Assay type in all cases: cell-based
PTK2 = PTK2 (Homo sapiens, UniProt Q05397); conditions: 1 μM inhibitor, HEK293T cells
Method: (§1) For plate preparation, a transfection mix was prepared in white 384-well small-volume plates (Greiner, cat. no. 784075) by preplating 3 μL of 20 μL/mL FuGene HD (Promega, cat. no. E2311), diluted in an Opti-MEM medium (Gibco, cat. no. 11058-021). One μL of DNA from both DNA vector source plates of the K192 kit was added using an Echo 550 acoustic dispenser (Beckman Coulter). The mix was incubated for 30 min, and 6 μL of HEK293T cells in an Opti-MEM medium was added. The proteins were allowed to express for 20 h. After expression, Tracer K10 was added using the concentrations recommended in the K192 technical manual and a 1 μM inhibitor was added to every second well. […] Five μL of substrate solution was added to every well, and filtered luminescence was measured on a PHERAstar plate reader (BMG Labtech) equipped with a luminescence filter pair (450 nm BP filter (donor) and a 610 nm LP filter (acceptor)). For every kinase, occupancy was calculated and plotted using GraphPad Prism 10 (Table S5).

PLK2 = PLK2 (Homo sapiens, UniProt Q9NYY3); conditions: HEK-293T; 1 μM inhibitor, HEK293T cells
Method: as §1

PRKAA2 = PRKAA2 (Homo sapiens, UniProt P54646); conditions: HEK-293T; 1 μM inhibitor, HEK293T cells
Method: as §1

NLK = NLK (Homo sapiens, UniProt Q9UBE8); conditions: HEK-293T; 1 μM inhibitor, HEK293T cells
Method: as §1

MYLK4 = MYLK4 (Homo sapiens, UniProt Q86YV6); conditions: HEK-293T; 1 μM inhibitor, HEK293T cells
Method: as §1

RPS6KA6 = RPS6KA6 (Homo sapiens, UniProt Q9UK32); conditions: HEK-293T; 1 μM inhibitor, HEK293T cells
Method: as §1

MUSK = MUSK (Homo sapiens, UniProt O15146); conditions: HEK-293T; 1 μM inhibitor, HEK293T cells
Method: as §1

SNRK = SNRK (Homo sapiens, UniProt Q9NRH2); conditions: HEK-293T; 1 μM inhibitor, HEK293T cells
Method: as §1

CAMK2D = CAMK2D (Homo sapiens, UniProt Q13557); conditions: HEK-293T; 1 μM inhibitor, HEK293T cells
Method: as §1

RIPK2 = RIPK2 (Homo sapiens, UniProt O43353); conditions: HEK-293T; 1 μM inhibitor, HEK293T cells
Method: as §1

ULK1 = ULK1 (Homo sapiens, UniProt O75385); conditions: HEK-293T; 1 μM inhibitor, HEK293T cells
Method: as §1

NUAK1 = NUAK1 (Homo sapiens, UniProt O60285); conditions: HEK-293T; 1 μM inhibitor, HEK293T cells
Method: as §1

NEK11 = NEK11 (Homo sapiens, UniProt Q8NG66); conditions: HEK-293T; 1 μM inhibitor, HEK293T cells
Method: as §1

PRKCE = PRKCE (Homo sapiens, UniProt Q02156); conditions: HEK-293T; 1 μM inhibitor, HEK293T cells
Method: as §1

NEK9 = NEK9 (Homo sapiens, UniProt Q8TD19); conditions: HEK-293T; 1 μM inhibitor, HEK293T cells
Method: as §1

EPHA4 = EPHA4 (Homo sapiens, UniProt P54764); conditions: HEK-293T; 1 μM inhibitor, HEK293T cells
Method: as §1

NEK1 = NEK1 (Homo sapiens, UniProt Q96PY6); conditions: HEK-293T; 1 μM inhibitor, HEK293T cells
Method: as §1

CDK15 = CDK15 (Homo sapiens, UniProt Q96Q40); conditions: HEK-293T; 1 μM inhibitor, HEK293T cells
Method: as §1

MAST4 = MAST4 (Homo sapiens, UniProt O15021); conditions: HEK-293T; 1 μM inhibitor, HEK293T cells
Method: as §1

STK10 = STK10 (Homo sapiens, UniProt O94804); conditions: HEK-293T; 1 μM inhibitor, HEK293T cells
Method: as §1

LATS2 = LATS2 (Homo sapiens, UniProt Q9NRM7); conditions: HEK-293T; 1 μM inhibitor, HEK293T cells
Method: as §1

ULK3 = ULK3 (Homo sapiens, UniProt Q6PHR2); conditions: HEK-293T; 1 μM inhibitor, HEK293T cells
Method: as §1

STK38L = STK38L (Homo sapiens, UniProt Q9Y2H1); conditions: HEK-293T; 1 μM inhibitor, HEK293T cells
Method: as §1

MAST3 = MAST3 (Homo sapiens, UniProt O60307); conditions: HEK-293T; 1 μM inhibitor, HEK293T cells
Method: as §1

DYRK1A = DYRK1A (Homo sapiens, UniProt Q13627); conditions: HEK-293T; 1 μM inhibitor, HEK293T cells
Method: as §1

MAP4K2 = MAP4K2 (Homo sapiens, UniProt Q12851); conditions: HEK-293T; 1 μM inhibitor, HEK293T cells
Method: as §1

PLK4 = PLK4 (Homo sapiens, UniProt O00444); conditions: HEK-293T; 1 μM inhibitor, HEK293T cells
Method: as §1

BMX = BMX (Homo sapiens, UniProt P51813); conditions: HEK-293T; 1 μM inhibitor, HEK293T cells
Method: as §1

MELK = MELK (Homo sapiens, UniProt Q14680); conditions: HEK-293T; 1 μM inhibitor, HEK293T cells
Method: as §1

CDKL3 = CDKL3 (Homo sapiens, UniProt Q8IVW4); conditions: HEK-293T; 1 μM inhibitor, HEK293T cells
Method: as §1

STK38 = STK38 (Homo sapiens, UniProt Q15208); conditions: HEK-293T; 1 μM inhibitor, HEK293T cells
Method: as §1

MAP4K1 = MAP4K1 (Homo sapiens, UniProt Q92918); conditions: HEK-293T; 1 μM inhibitor, HEK293T cells
Method: as §1

TEK = TEK (Homo sapiens, UniProt Q02763); conditions: HEK-293T; 1 μM inhibitor, HEK293T cells
Method: as §1

MERTK = MERTK (Homo sapiens, UniProt Q12866); conditions: HEK-293T; 1 μM inhibitor, HEK293T cells
Method: as §1

STK11 = STK11 (Homo sapiens, UniProt Q15831); conditions: HEK-293T; 1 μM inhibitor, HEK293T cells
Method: as §1

CSNK1A1L = CSNK1A1L (Homo sapiens, UniProt Q8N752); conditions: HEK-293T; 1 μM inhibitor, HEK293T cells
Method: as §1

SBK3 = SBK3 (Homo sapiens, UniProt P0C264); conditions: HEK-293T; 1 μM inhibitor, HEK293T cells
Method: as §1

Chain of MUSK (O15146 24-869): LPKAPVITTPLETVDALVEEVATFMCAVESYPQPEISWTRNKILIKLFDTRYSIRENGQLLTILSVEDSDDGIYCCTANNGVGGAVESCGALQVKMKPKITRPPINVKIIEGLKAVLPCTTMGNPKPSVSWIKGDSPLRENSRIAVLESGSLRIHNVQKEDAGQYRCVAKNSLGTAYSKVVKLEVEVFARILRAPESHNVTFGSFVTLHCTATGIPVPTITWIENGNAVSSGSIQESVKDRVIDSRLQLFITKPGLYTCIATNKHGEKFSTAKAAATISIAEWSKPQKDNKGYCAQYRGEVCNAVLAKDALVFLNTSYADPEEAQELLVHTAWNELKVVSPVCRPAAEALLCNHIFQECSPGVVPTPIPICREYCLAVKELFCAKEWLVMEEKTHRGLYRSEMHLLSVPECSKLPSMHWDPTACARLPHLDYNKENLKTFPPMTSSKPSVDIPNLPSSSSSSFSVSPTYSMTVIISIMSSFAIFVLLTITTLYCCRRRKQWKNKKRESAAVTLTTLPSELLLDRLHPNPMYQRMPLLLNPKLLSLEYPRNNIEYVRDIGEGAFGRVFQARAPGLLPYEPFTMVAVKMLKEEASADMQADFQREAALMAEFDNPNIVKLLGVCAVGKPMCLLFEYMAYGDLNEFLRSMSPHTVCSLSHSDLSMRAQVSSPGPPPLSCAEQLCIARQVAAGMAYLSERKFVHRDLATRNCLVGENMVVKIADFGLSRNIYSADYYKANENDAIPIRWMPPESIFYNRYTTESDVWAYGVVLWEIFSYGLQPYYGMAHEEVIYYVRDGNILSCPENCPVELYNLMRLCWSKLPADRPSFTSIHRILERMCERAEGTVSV
Chain of CDK15 (Q96Q40 whole entry): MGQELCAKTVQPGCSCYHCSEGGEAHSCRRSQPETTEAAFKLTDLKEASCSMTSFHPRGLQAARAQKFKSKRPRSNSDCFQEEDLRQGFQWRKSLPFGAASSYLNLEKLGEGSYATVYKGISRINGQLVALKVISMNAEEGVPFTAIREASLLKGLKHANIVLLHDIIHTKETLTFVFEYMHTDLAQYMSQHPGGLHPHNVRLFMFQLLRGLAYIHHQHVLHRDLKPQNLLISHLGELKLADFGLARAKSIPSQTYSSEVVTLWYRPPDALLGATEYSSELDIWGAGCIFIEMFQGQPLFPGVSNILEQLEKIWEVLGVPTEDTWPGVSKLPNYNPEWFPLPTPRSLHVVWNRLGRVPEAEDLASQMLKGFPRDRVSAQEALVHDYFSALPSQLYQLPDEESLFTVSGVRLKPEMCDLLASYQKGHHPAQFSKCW
Chain of CDK15 (Q8ND76 whole entry, further chain): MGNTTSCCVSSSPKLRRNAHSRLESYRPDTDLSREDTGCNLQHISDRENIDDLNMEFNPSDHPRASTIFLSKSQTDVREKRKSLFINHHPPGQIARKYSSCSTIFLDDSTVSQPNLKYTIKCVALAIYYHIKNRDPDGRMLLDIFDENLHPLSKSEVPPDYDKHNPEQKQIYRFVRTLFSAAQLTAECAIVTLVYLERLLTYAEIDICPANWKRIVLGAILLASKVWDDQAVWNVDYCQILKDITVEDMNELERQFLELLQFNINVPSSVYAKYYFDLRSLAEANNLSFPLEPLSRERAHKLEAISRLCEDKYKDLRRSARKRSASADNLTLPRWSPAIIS
Chain of TEK (Q02763 23-1124): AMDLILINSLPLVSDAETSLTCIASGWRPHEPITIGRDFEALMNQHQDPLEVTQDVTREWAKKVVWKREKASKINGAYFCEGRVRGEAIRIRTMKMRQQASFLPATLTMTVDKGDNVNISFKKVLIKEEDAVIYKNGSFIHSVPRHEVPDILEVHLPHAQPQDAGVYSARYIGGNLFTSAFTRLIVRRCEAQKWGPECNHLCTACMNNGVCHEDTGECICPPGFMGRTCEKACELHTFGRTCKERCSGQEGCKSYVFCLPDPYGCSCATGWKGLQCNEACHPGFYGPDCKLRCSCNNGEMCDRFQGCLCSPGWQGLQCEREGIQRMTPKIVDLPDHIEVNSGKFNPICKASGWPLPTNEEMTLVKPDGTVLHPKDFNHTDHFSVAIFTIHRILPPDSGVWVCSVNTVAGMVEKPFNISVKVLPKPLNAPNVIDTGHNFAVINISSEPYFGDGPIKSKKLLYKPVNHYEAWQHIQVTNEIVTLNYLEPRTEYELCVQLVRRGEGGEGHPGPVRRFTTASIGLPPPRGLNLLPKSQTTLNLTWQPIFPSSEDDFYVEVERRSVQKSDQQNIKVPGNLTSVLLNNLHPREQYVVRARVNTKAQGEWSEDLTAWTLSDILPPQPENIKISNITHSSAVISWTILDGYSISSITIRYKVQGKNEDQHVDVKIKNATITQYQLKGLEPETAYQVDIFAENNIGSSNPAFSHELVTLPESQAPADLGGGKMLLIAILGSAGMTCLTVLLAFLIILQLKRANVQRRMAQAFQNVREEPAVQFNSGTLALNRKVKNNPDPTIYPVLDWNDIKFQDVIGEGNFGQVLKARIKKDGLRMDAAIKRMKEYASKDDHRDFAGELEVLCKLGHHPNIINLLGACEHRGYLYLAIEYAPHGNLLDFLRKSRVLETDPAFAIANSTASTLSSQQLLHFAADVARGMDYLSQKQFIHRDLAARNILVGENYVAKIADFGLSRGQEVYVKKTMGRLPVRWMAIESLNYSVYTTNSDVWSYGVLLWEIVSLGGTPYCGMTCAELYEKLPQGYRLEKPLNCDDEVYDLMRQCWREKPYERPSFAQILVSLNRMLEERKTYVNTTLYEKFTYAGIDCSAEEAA
Chain of CDKL3 (Q8IVW4 whole entry): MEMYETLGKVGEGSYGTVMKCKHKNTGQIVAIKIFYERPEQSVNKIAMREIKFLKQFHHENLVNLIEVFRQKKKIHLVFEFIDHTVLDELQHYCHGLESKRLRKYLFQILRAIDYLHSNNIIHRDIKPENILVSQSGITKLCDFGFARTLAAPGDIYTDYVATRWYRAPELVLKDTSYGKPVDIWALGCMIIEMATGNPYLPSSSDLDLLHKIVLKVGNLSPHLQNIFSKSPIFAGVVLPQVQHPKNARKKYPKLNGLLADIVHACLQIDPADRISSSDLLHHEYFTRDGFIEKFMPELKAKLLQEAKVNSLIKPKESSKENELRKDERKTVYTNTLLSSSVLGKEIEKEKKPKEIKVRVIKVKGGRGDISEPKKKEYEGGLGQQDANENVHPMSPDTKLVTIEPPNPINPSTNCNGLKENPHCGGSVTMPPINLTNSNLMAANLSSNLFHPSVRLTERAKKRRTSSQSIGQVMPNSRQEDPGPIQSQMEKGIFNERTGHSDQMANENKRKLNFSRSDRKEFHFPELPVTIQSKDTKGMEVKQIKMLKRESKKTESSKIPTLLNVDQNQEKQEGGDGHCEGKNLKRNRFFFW
Chain of MAST3 (O60307 whole entry): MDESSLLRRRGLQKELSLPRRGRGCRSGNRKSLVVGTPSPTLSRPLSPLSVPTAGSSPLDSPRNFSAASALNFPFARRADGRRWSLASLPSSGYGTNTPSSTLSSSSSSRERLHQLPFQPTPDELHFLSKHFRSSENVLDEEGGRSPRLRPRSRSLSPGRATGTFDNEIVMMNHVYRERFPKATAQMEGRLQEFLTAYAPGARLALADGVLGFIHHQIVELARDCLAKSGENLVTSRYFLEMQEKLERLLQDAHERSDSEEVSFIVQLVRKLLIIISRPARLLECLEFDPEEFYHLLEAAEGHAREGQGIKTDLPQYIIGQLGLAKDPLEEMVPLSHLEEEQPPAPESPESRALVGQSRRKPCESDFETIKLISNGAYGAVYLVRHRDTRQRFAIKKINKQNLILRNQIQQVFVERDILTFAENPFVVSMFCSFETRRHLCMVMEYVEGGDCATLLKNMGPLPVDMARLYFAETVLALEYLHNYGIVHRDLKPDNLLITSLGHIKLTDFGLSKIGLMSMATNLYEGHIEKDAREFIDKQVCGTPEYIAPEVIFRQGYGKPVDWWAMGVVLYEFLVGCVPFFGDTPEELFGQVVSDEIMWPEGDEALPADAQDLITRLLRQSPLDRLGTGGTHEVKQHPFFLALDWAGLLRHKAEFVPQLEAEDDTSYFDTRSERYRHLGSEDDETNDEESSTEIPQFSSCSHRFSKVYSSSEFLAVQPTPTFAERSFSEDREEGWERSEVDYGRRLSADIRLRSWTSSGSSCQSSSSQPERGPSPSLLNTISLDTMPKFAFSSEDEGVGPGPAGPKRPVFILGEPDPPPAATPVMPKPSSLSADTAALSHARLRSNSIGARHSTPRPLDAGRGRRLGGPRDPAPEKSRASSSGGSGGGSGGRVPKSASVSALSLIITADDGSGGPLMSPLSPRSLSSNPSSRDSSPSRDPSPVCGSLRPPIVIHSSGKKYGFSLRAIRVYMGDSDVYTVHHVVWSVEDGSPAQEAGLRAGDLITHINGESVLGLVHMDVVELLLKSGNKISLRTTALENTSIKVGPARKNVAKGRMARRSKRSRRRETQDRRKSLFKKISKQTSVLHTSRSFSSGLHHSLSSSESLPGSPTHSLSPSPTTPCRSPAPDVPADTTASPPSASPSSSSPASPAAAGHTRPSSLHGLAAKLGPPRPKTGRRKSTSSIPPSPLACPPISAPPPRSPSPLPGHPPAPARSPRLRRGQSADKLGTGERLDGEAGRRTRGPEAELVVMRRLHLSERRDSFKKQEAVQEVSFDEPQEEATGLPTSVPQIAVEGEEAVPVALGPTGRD
Chain of CSNK1A1L (Q8N752 whole entry): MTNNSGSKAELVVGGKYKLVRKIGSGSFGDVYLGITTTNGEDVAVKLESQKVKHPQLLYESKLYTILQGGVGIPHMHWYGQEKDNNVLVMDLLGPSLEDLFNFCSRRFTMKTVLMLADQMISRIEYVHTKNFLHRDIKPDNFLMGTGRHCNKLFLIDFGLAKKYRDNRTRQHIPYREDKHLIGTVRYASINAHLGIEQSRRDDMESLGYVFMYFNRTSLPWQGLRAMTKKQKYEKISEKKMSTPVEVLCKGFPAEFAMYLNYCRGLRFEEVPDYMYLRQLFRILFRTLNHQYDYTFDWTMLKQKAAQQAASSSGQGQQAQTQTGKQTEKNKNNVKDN

CN1C(=O)[C@@H](N2CCc3c(nn(Cc4ccccc4)c3C(N)=O)C2=O)COc2cc(Cl)ccc21 [Compound 10, (S)-2-benzyl-6-(8-chloro-5-methyl-4-oxo-2,3,4,5-tetrahydrobenzo[b][1,4]oxazepin-3-yl)-7-oxo-4,5,6,7-tetrahydro-2H-pyrazolo[3,4-c]pyridine-3-carboxamide]
receptor occupancy at 1 µM (PTK2): -12.2% | receptor occupancy at 1 µM (PLK2): 2.74% | receptor occupancy at 1 µM (PRKAA2): 2.71% | receptor occupancy at 1 µM (NLK): 5.94% | receptor occupancy at 1 µM (MYLK4): -2.91% | receptor occupancy at 1 µM (RPS6KA6): 7.04% | receptor occupancy at 1 µM (MUSK): -11.5% | receptor occupancy at 1 µM (SNRK): 7.74% | receptor occupancy at 1 µM (CAMK2D): 5.75% | receptor occupancy at 1 µM (RIPK2): -1.2% | receptor occupancy at 1 µM (ULK1): 4.3% | receptor occupancy at 1 µM (NUAK1): -4.45% | receptor occupancy at 1 µM (NEK11): 10.1% | receptor occupancy at 1 µM (PRKCE): 3.9% | receptor occupancy at 1 µM (NEK9): 3.71% | receptor occupancy at 1 µM (EPHA4): -5.78% | receptor occupancy at 1 µM (NEK1): 8.46% | receptor occupancy at 1 µM (CDK15): -12.8% | receptor occupancy at 1 µM (MAST4): -4.29% | receptor occupancy at 1 µM (STK10): -3.32% | receptor occupancy at 1 µM (LATS2): 8.35% | receptor occupancy at 1 µM (ULK3): 1.52% | receptor occupancy at 1 µM (STK38L): 7.45% | receptor occupancy at 1 µM (MAST3): 3.64% | receptor occupancy at 1 µM (DYRK1A): -1.01% | receptor occupancy at 1 µM (MAP4K2): -0.43% | receptor occupancy at 1 µM (PLK4): 10.7% | receptor occupancy at 1 µM (BMX): -3.33% | receptor occupancy at 1 µM (MELK): 13.7% | receptor occupancy at 1 µM (CDKL3): 4.18% | receptor occupancy at 1 µM (STK38): 4.93% | receptor occupancy at 1 µM (MAP4K1): 3.49% | receptor occupancy at 1 µM (TEK): 9.13% | receptor occupancy at 1 µM (MERTK): 0.31% | receptor occupancy at 1 µM (STK11): -4.45% | receptor occupancy at 1 µM (CSNK1A1L): 10.7% | receptor occupancy at 1 µM (SBK3): -4.46%
